We go through two molecules from EP4755890A1, “OXO-TRICYCLIC DERIVATIVE AND PHARMACEUTICAL USE THEREOF” (Haisco Pharmaceutical Group Co., Ltd., priority 2023, dated 2025).

One assay concerns the target T1, hERG potassium channel (Homo sapiens, UniProt Q12809).
T1 construct: expressed in transfected cells
Put plainly: hERG potassium channel activity assay (manual whole-cell patch clamp). Format: cell-based. The text has this:
Experimental platform: Manual electrophysiological patch-clamp system
Cell line: Chinese hamster ovary (CHO) cell line stably expressing hERG potassium channel
Experimental method: In Chinese Hamster Ovary (CHO) cells stably expressing hERG potassium channel, whole-cell patch-clamp technique was used to record hERG potassium channel current at room temperature. The glass microelectrodes were pulled from glass electrode blanks (BF150-86-10, Sutter) by a glass microelectrode puller. The tip resistance of the microelectrodes after being filled with intrapipette solution was about 2-5 MΩ. The glass microelectrodes were connected to the patch-clamp amplifier by inserting them into an amplifier probe. The clamping voltage and data recording were controlled and recorded by the pClamp 10 software through a computer, with a sampling frequency of 10 kHz and a filtering frequency of 2 kHz. […]
Compound IC50 was calculated using GraphPad Prism 5 software by fitting according to the following equation: Y = Bottom + (Top−Bottom)/(1+10^(∧)((LogIC50−X)*HillSlope)) [formula] where X is the Log value of the test compound concentration, Y is the inhibition percentage at the corresponding concentration, and Bottom and Top are the minimum and maximum inhibition percentage, respectively.
(The hERG channel carries a current that helps repolarise heart muscle cells.)

The next assay concerns HCT-116 cells. The assay is described as follows: HCT-116 cell proliferation inhibition assay (CellTiter-Glo). As to conditions: Homo sapiens, 96 h, 4 days, read-out: Inhibitory activity against HCT-116 cell proliferation IC50. The class given is cell-based. The method, then: The culture conditions for HCT-116 cells were as follows: RPMI-1640 + 10% FBS + 1% penicillin-streptomycin, and the cells were cultured in an incubator with 5% CO2 at 37°C. On the first day, the HCT-116 cells in the exponential growth phase were collected and plated in 96-well cell culture plates at a density of 800 cells/well (180 µL/well). The plates were cultured overnight in an incubator with 5% CO2 at 37°C. T0 wells were plated simultaneously during the plating process. The next day, 20 µL of compounds at different concentrations were added to each well (nine compound concentration gradients, one DMSO well, and one blank well; each compound concentration was plated in triplicate), and the final concentration of DMSO in each well was 0.1%. The plates were cultured in an incubator with 5% CO2 at 37°C for 4 days. On the same day of compound addition, the T0 plate was detected using the CellTiter-Glo Kit, and the detected value was recorded as RLU0. After the culture was completed, 100 µL of detection solution (Cell Viability Assay, Promega) was added to each well. […] The chemiluminescence reading was read using a BMG microplate reader (PHERAstar FSX). […] In the formula, RLUcompound is the readout of the drug-treated group, RLUcontrol is the average value of the compound vehicle control group, and RLUBlank is the average value of the blank control group. […]
On the technique in general: ATP-based viability assays read luminescence as a measure of living cells.

In assay [1] the target is T2, WRN protein (AA N517-P1238, ICE) (Homo sapiens, UniProt Q14191).
T2 construct: WRN protein (AA N517-P1238, ICE); purchased ICE
T2 sequence (Q14191 517-1238): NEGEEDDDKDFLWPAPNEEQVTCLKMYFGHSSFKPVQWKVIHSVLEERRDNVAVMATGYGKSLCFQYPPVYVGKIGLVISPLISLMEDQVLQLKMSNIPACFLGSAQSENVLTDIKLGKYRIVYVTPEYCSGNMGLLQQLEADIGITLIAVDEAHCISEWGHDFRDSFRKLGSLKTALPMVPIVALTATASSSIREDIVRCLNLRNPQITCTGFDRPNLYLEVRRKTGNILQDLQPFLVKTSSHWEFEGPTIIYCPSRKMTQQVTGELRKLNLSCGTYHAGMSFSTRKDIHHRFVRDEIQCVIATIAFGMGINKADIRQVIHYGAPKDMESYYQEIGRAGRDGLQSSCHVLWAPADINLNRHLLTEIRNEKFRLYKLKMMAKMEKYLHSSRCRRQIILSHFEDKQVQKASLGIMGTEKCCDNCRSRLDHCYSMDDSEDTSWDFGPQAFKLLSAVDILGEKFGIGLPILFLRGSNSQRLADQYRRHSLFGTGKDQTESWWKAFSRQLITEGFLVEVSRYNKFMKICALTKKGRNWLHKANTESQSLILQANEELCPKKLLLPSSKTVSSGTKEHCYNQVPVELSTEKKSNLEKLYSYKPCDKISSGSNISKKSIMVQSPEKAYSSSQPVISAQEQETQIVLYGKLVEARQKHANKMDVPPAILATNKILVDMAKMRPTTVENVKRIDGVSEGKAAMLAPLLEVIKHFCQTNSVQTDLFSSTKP
The assay is described as follows: Assay for ATPase activity of WRN helicase (ADP-Glo). Format: biochemical. As to conditions: inhibition of ATPase activity of WRN helicase; 0.3 nM WRN, 0.2 nM DNA substrate, 10 µM ATP. As to the method: The assay buffer working solution was as follows: 30 mM Tris pH 7.5 + 0.02% BSA + 2 mM MgCl2 + 50 mM NaCl + 0.1% Pluronic® F127 + 1 mM DTT. WRN protein (AA N517-P1238, ICE) was obtained through protein expression and purification in vitro. A single-stranded DNA substrate ([…]) was synthesized in vitro. 1 µL each of compounds at different concentrations, the WRN protein, and the DNA substrate, together with 2 µL of ATP, were added to a 384-well white plate. The working concentrations of the WRN protein, the DNA substrate, and the ATP were 0.3 nM, 0.2 nM, and 10 µM, respectively. The plate was incubated at room temperature for 20 minutes. After the incubation was completed, the detection was performed in accordance with the instructions of the ADP-Glo Assay Kit (Promega), and the chemiluminescence value was read.
The inhibition rate was calculated according to Formula 1, where RLUsample is the readout of the compound well, RLUmax is the readout of the DMSO control well, and RLUmin is the readout of the control well without the WRN protein. Curve fitting was performed via a four-parameter logistic model (log(inhibitor) vs. response -- Variable slope) using GraphPad Prism software, and the IC50 value was calculated. Inhibition% = (1−(RLUsample−RLUmin)/(RLUmax−RLUmin)) × 100% [formula] Table 1. Results of inhibitory activity of test compounds against ATPase activity of WRN helicase

A further assay has as its system SW48 Xenograft Tumor. The assay is described as follows: In vivo efficacy assay of SW48 xenograft tumor. Further details: species or system BALB/c nude mice. As to conditions: after 14 days of administration. The method, then:
The culture conditions for SW48 cells were as follows: Leibovitz L15 + 10% FBS + 1% penicillin-streptomycin, and the cells were cultured in an incubator without CO2 at 37°C. When the cell confluency reached 80%-90% and the cell number met the requirement, the cells were harvested and counted. 0.1 mL of SW48 cell suspension (5 × 10^6 cells) was subcutaneously inoculated into the right posterior back of female BALB/c nude mice. When the average tumor volume reached 100-150 mm^3, the mice were grouped according to their tumor volumes, with 10 animals per group. The test compounds at different dosages were administered to the animals in each group via intragastric administration once daily. The day of grouping was recorded as D0. During the experiment, the body weights and tumor diameters of the animals were measured three times a week. The tumor volume was calculated according to the formula V = 0.5 × a × b^2, where a and b represent the long diameter and short diameter of the tumor, respectively. The tumor inhibitory efficacy of the test compounds was evaluated by tumor growth inhibition rate (TGI%). [formula]

T1 sequence (Q12809 whole entry): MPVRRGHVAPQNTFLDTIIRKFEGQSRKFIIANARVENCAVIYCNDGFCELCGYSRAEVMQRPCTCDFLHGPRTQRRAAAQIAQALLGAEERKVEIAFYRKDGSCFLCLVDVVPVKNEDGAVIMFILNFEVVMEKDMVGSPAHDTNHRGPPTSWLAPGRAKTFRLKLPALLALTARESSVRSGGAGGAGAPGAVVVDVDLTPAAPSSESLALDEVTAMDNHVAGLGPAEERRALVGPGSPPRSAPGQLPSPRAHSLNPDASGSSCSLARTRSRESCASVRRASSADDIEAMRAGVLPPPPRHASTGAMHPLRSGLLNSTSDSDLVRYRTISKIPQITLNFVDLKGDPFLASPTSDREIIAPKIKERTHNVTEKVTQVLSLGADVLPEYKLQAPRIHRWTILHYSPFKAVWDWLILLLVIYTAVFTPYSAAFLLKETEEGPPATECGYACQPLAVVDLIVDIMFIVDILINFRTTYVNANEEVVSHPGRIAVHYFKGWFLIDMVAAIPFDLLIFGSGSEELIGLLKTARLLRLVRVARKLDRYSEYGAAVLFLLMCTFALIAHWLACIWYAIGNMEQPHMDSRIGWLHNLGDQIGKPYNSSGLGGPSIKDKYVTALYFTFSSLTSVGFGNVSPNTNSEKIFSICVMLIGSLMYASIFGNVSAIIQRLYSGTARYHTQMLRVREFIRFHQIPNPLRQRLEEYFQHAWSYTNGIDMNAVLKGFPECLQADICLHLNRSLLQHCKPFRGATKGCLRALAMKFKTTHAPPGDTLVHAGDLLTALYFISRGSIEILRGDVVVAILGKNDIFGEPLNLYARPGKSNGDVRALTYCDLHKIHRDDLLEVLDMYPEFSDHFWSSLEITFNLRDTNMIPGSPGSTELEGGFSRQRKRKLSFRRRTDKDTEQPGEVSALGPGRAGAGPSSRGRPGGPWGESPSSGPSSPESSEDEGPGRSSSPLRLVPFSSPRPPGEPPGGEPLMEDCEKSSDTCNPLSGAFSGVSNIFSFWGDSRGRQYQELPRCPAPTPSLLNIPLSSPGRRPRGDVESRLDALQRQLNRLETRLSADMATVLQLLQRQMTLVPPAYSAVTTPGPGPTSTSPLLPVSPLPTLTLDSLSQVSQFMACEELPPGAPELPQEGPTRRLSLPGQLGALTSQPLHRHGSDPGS

With `Cc1ncnc(C(=O)N2CCN(c3c4n(c5nc(C6=CCOCC6)nn5c3=O)C(C(=O)Nc3ccc(C(F)(F)F)cc3Cl)CCC4)C[C@H]2C)c1O` (single isomer, unassigned) [Compound 8-B], on hERG potassium channel, the IC50 is above 40 µM.

Turning to `Cc1ncnc(C(=O)N2CCN(c3c4n(c5nc(C6=CCOCC6)nn5c3=O)[C@@H](C(=O)Nc3ccc(C(F)(F)F)cc3Cl)CCC4)CC2)c1O` [Compound 1-B], the results for the IC50 (in the assay on HCT-116 cells; in assay [1]; at hERG potassium channel) were below 0.1 µM, below 0.02 µM and above 40 µM, respectively. The “growth of SW48 tumors” value with SW48 Xenograft Tumor (intragastric once daily) is recorded as “significantly inhibit”. The tumor shrinkage entry with SW48 Xenograft Tumor (dosage group of 15 mg/kg) and with SW48 Xenograft Tumor (dosage group of 50 mg/kg) was “tumor shrinkage can be observed” throughout.
